“Also recorded” adds a separate entry of the source.
Tests used:
Nrf2 = test: Intracellular distribution of Nrf2 protein in COS7 cells (immunofluorescence); format: cell-based; conditions: 10 μM CA
Procedure: Immunocytochemistry. Cultures were fixed with 3% paraformaldehyde at room temperature for 20 min. After three washes in PBS, the cells were permeabilized with 0.3% Triton X-100 for 5 min. After three additional washes in PBS, the cells were incubated at 4° C. overnight with primary antibodies. They were then washed three times in PBS containing 0.2% Tween 20 (PBS-T), and next incubated with secondary antibodies for 1 h at room temperature. Thereafter, the cells were again washed, and their nuclei stained with Hoechst 33,258 (5 μg/ml) or with DAPI (1 μg/ml) for 5 min. Stained preparations were mounted and examined by epifluorescence microscopy. The following primary antibodies were used: anti-Nrf2 antibody, anti-MAP2 and anti-NeuN antibodies to identify neurons (dendrites and nuclei, respectively), and anti-S100β antibody to identify astrocytes. As secondary antibodies, we used FITC-conjugated anti-mouse IgG, rhodamine-conjugated anti-mouse IgG, or rhodamine-conjugated streptavidin.
After binding of the electrophilic quinone-form of CA to Keap1 protein, activation of the Keap1/Nrf2 pathway requires nuclear translocation of Nrf2 (Talalay, Biofactors 12:5-11, 2000; Padmanabham et al., Mol. Cell 21:689-700, 2006; Itoh et al., Free Radic. Biol. Med. 36:1208-1213, 2004). Thus, we next examined the intracellular distribution of Nrf2 protein in COS7 cells by immunofluorescence.

GSH [1] = test: Brain GSH and GSSG after feeding CA; format: in vivo, mouse; conditions: food containing 0.03% CA for a week
Procedure: Mice were fed 0.03% CA for 1 week, and their brains were then removed, lysed and subjected to GSH and GSSG measurement.
Measurement of brain GSH. After exsanguination via heart puncture under ether anesthesia, mouse brains were removed and quickly frozen in liquid nitrogen. We ruled out GSH as a contaminant from blood vessels by HPLC analysis of blood components in the brain lysates.
The frozen brains were lysed with 1% sulfosalicylic acid on ice for 10 min, and total glutathione (reduced and oxidized) was determined as described previously (Sagara et al., 2002). Briefly, after the lysates had been incubated on ice for 10 min, the supernatants were collected after centrifugation in Eppendorf microfuge tubes. Upon neutralization of each supernatant with triethanolamine, the total glutathione (reduced and oxidized) concentration was determined. Pure GSH was used to obtain the standard curve. For the determination of oxidized GSH, the method of Griffith using 2-vinylpyridine was used to deplete the reduced GSH.
Mice were allowed free access to food containing 0.03% CA for a week. Their brains were then removed, and extracts were prepared and measured for GSH and GSSG levels. Under these conditions, CA increased both total GSH+GSSG and the ratio of GSH/GSSG (FIG. 6). […]

GSH [2] = test: Total GSH levels in cortical cultures; format: cell-based; conditions: cortical cultures, control 46.8±4.5 nmol/mg protein
Procedure: (§1) Cell cultures, transfection, and glutathione (GSH) measurement. […] Transfection was performed with Lipofectamine 2000 (Invitrogen). In the reporter gene assays, firefly luciferase activity in cell lysates was measured with a luminometer (Promega). Total GSH (reduced and oxidized) was determined as described (Lee et al., Biochem. Biophys. Res. Commun. 280:286-292, 2001).
One caveat to the mechanism of NEPP and other electrophilic compounds acting at the level of Keap1 to induce HO-1 transcription is that NEPP could potentially react indiscriminately with other thiol-containing compounds in cells. To approach this question, we assessed cellular glutathione (GSH) levels to determine whether NEPP11 would affect this abundant antioxidant thiol. Nepp11 or N-ethylmaleimide (NEM) was added at t=0 and levels of total GSH were measured at the indicated times. GSH content of control cortical cultures (set arbitrarily at 100%) was 46.8±4.5 nmol/mg protein. […] In fact, this scenario seems likely, because the Keap1/Nrf2 pathway regulates the expression of γ-GCL in addition to HO-1 (Itoh et al., Mol. Cell. Biol. 24:36-45, 2004). […]
Transfections were performed with Lipofectamine 2000 (Invitrogen), and firefly luciferase activity in cell lysates was measured with a luminometer in the reporter gene assays (Promega).

HO-1 promoter = HO-1 promoter luciferase reporter (pHO15luc) in HT22 cells; format: cell-based, mouse
Procedure: as §1
NEPPs activate HO-1 transcription through the ARE. We next studied activation of the HO-1 promoter and ARE by NEPP. In order to examine the induction of HO-1 protein by NEPP11, various concentrations of NEPP11 were added to HT22 cells for 24 h. Thereafter, cell lysates (10 μg per lane) were subjected to SDS-PAGE and probed with anti-HO-1 or anti-β-actin. […] Next, we studied transcriptional activation of the HO-1 gene by NEPP11 in HT22 cells, a differentiated neuronal cell line, transfected with pHO15luc, a luciferase reporter construct under the control of a 15-kb mouse HO-1 promoter fragment. HT22 cells were transfected with reporter cDNAs (1 μg per well), and various concentrations of NEPP11 were added to the cultures. After a 24-h incubation, cell lysates were subjected to luciferase reporter assays. […] Gong et al. (Antioxid. Redox Signal. 4:249-257, 2002) had identified two enhancer regions, E1 and E2, located upstream of the transcriptin initiation site by approximately 4 and 10 kb that contained the elements responsible for activation by 15-deoxy-Δ^12,14-PGJ2 (Gong et al., Antioxid. Redox Signal. 4:249-257, 2002). To determine the role of the E1 and E2 enhancers, we expressed a mutant promoter construct lacking both enhancer sites [pHO15lucΔ(E1+E2)]. The mutant was only minimally responsive to NEPP11 (1.8-fold induction).
(§2) Because the E1 and E2 regions also contain other enhancer elements, we tested the effects of NEPP11 (2 μM) on the expression of luciferase activity derived from these elements, including the cAMP-responsive element (CRE; p3xCREluc), AP-1 binding site (p3xAP1luc), NF-κB binding site (p3xNF-κBluc), NFAT-binding site (p3xNFATluc), ETS-binding site (p3xETSluc), and MEF2-binding site (p3xMEF2luc).

MEF2-binding site = test: Enhancer element luciferase reporter p3xMEF2luc; format: cell-based; conditions: NEPP11 2 μM
Procedure: as §2

Compound: CC(C)c1cc2c(c(O)c1O)[C@@]1(C(=O)O)CCCC(C)(C)[C@@H]1CC2 [CA, carnosic acid]
- localization of Nrf2 protein (Nrf2): translocated into the nucleus
- ratio of GSH/GSSG in brain (GSH [1]): increased
- total GSH+GSSG in brain (GSH [1]): increased

Compound: COC(=O)CCCCC/C=C1/C(=O)C=C[C@H]1CCCCCCc1ccc(C)cc1 [NEPP11]
- total GSH levels (GSH [2]): did not deplete GSH levels; also recorded: transiently increased
- expression of HO-1 transcription (pHO15luc luciferase activity) (HO-1 promoter; HT22 cells, 24 h, dose-dependent): more than five-fold
- induction of mutant promoter pHO15lucΔ(E1+E2) (HO-1 promoter; HT22 cells, construct lacking E1 and E2 enhancers): 1.8 fold
- induction of pHO15luc reporter activity (HO-1 promoter; NEPP11 2 μM, used for comparison): greater than five-fold
- activation of pHO15luc with co-transfection of pKeap1(C151S) (HO-1 promoter; not depressed by wild-type pKeap1): significantly depressed
- activity of p3xMEF2luc (MEF2-binding site): no effect

— patent US8466311B2, “Neuroprotective compositions and methods” (Sanford-Burnham Medical Research Institute, priority 2006, dated 2013)
